Results published in patent US12291519B2, “2-hydroxycycloalkane-1-carbamoyl” (Idorsia Pharmaceuticals Ltd, priority 2019, dated 2025).

What was measured:
human Gal-3 (hGal-3) = human Gal-3 (hGal-3) (Homo sapiens (Human), UniProt P17931); assay: Competitive binding assay: biotinylated hGal-3 binding to microplate-adsorbed asialofetuin (ASF); settings: Activity on hGal-3; binding of biotinylated hGal-3 to ASF-coated plates; mean values
Procedure, shortened: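 Serially diluted compounds competed with biotinylated human Gal-3 for binding to plate-adsorbed asialofetuin over 3 h at 4 °C. Bound Gal-3 was detected with streptavidin-peroxidase (80 ng/mL, 1 h, 4 °C) and ABTS substrate. IC50 values are means of several measurements.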

human Gal-1 (hGal-1) [1] = biological target: human Gal-1 (hGal-1) (Homo sapiens, UniProt P09382); assay: Competitive binding assay: biotinylated hGal-1 binding to microplate-adsorbed asialofetuin (ASF); settings: Activity on hGal-1; binding of biotinylated hGal-1 to ASF-coated plates; mean values
Procedure, shortened: (§1)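 Biotinylated hGal-1 (300–1000 ng/mL; optionally a cysteine-free all-serine variant) incubated 3 h at 4 °C with compound on asialofetuin-coated plates, then streptavidin-peroxidase 1 h at 4 °C. ABTS readout at OD 410 nm after 30–45 min; IC50 given as mean of several runs.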

human Gal-1 (hGal-1) [2] = assay: as above; settings: Activity on hGal-1; binding of biotinylated hGal-1 to ASF-coated plates; mean values
Procedure, shortened: as §1

Sequence of human Gal-1 (hGal-1) (P09382 2-135 limits assumed): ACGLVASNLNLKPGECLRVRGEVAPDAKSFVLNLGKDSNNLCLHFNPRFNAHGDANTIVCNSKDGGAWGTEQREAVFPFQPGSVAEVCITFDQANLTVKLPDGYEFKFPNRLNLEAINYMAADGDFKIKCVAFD
Sequence of human Gal-3 (hGal-3) (P17931 whole entry): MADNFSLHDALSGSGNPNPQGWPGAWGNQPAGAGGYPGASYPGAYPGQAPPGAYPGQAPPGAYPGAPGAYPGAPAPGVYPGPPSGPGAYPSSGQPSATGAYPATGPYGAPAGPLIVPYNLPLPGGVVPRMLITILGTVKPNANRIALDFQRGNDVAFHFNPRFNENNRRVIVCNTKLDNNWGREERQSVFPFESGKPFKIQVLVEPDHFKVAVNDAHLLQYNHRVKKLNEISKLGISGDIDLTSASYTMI
Sequence of human Gal-1 (hGal-1) (Homo sapiens, UniProt P09382) (P09382 2-135 limits assumed): as the sequence (P09382 2-135 limits assumed) above

CO[C@@H]1[C@@H](n2cc(-c3cc(F)c(C)c(F)c3)nn2)[C@@H](O)[C@@H](CO)O[C@H]1C(=O)N(c1cc(F)cc(Br)c1)[C@H]1CCCC[C@@H]1O [Example 160, (2R,3R,4S,5R,6R)-N-(3-bromo-5-fluorophenyl)-4-(4-(3,5-difluoro-4-methylphenyl)-1H-1,2,3-triazol-1-yl)-5-hydroxy-N-((1S,2S)-2-hydroxycyclohexyl)-6-(hydroxymethyl)-3-methoxytetrahydro-2H-pyran-2-carboxamide]
IC50 (human Gal-3 (hGal-3)): 11 nM | IC50 (human Gal-1 (hGal-1) [1]): 1770 nM

CO[C@@H]1[C@@H](n2cc(-c3cc(F)c(F)c(F)c3)nn2)[C@@H](O)[C@@H](CO)O[C@H]1C(=O)N(c1ccc2ccccc2c1)[C@H]1CCCC[C@@H]1O [Example 197, (2R,3R,4S,5R,6R)-5-hydroxy-N-((1S,2S)-2-hydroxycyclohexyl)-6-(hydroxymethyl)-3-methoxy-N-(naphthalen-2-yl)-4-(4-(3,4,5-trifluorophenyl)-1H-1,2,3-triazol-1-yl)tetrahydro-2H-pyran-2-carboxamide]
IC50 (human Gal-3 (hGal-3)): 97 nM | IC50 (human Gal-1 (hGal-1) [2]): 6830 nM

CO[C@@H]1[C@@H](n2cc(-c3cc(F)c(F)c(F)c3)nn2)[C@@H](O)[C@@H](CO)O[C@H]1C(=O)N(c1cccc2ccccc12)[C@H]1CCCC[C@@H]1O [Example 198, (2R,3R,4S,5R,6R)-5-hydroxy-N-((1S,2S)-2-hydroxycyclohexyl)-6-(hydroxymethyl)-3-methoxy-N-(naphthalen-1-yl)-4-(4-(3,4,5-trifluorophenyl)-1H-1,2,3-triazol-1-yl)tetrahydro-2H-pyran-2-carboxamide]
IC50 (human Gal-3 (hGal-3)): 117 nM | IC50 (human Gal-1 (hGal-1) [2]): > 100000 nM

CO[C@@H]1[C@@H](n2cc(-c3cc(F)c(F)c(F)c3)nn2)[C@@H](O)[C@@H](CO)O[C@H]1C(=O)N(c1cc(C)n(C)n1)[C@H]1CCCC[C@@H]1O [Example 199, (2R,3R,4S,5R,6R)-N-(1,5-dimethyl-1H-pyrazol-3-yl)-5-hydroxy-N-((1S,2S)-2-hydroxycyclohexyl)-6-(hydroxymethyl)-3-methoxy-4-(4-(3,4,5-trifluorophenyl)-1H-1,2,3-triazol-1-yl)tetrahydro-2H-pyran-2-carboxamide]
IC50 (human Gal-3 (hGal-3)): 321 nM | IC50 (human Gal-1 (hGal-1) [2]): 18000 nM

CO[C@@H]1[C@@H](n2cc(-c3ccc(C)c(F)c3)nn2)[C@@H](O)[C@@H](CO)O[C@H]1C(=O)N(c1cc(Br)cc(C#N)c1)[C@H]1CCCC[C@@H]1O [Example 200, (2R,3R,4S,5R,6R)-N-(3-bromo-5-cyanophenyl)-4-(4-(3-fluoro-4-methylphenyl)-1H-1,2,3-triazol-1-yl)-5-hydroxy-N-((1S,2S)-2-hydroxycyclohexyl)-6-(hydroxymethyl)-3-methoxytetrahydro-2H-pyran-2-carboxamide]
IC50 (human Gal-3 (hGal-3)): 8 nM | IC50 (human Gal-1 (hGal-1) [2]): 158 nM

CO[C@@H]1[C@@H](n2cc(-c3ccc(Cl)cc3)nn2)[C@@H](O)[C@@H](CO)O[C@H]1C(=O)N(c1cc(Cl)cc(C#N)c1)[C@H]1CCCC[C@@H]1O [Example 201, (2R,3R,4S,5R,6R)-N-(3-chloro-5-cyanophenyl)-4-(4-(4-chlorophenyl)-1H-1,2,3-triazol-1-yl)-5-hydroxy-N-((1S,2S)-2-hydroxycyclohexyl)-6-(hydroxymethyl)-3-methoxytetrahydro-2H-pyran-2-carboxamide]
IC50 (human Gal-3 (hGal-3)): 20 nM | IC50 (human Gal-1 (hGal-1) [2]): 242 nM

CO[C@@H]1[C@@H](n2cc(-c3ccc(Br)cc3)nn2)[C@@H](O)[C@@H](CO)O[C@H]1C(=O)N(c1cc(Cl)cc(C#N)c1)[C@H]1CCCC[C@@H]1O [Example 202, (2R,3R,4S,5R,6R)-4-(4-(4-bromophenyl)-1H-1,2,3-triazol-1-yl)-N-(3-chloro-5-cyanophenyl)-5-hydroxy-N-((1S,2S)-2-hydroxycyclohexyl)-6-(hydroxymethyl)-3-methoxytetrahydro-2H-pyran-2-carboxamide]
IC50 (human Gal-3 (hGal-3)): 21 nM | IC50 (human Gal-1 (hGal-1) [2]): 341 nM

CO[C@@H]1[C@@H](n2cc(-c3cc(F)c(N4CCOCC4)c(F)c3)nn2)[C@@H](O)[C@@H](CO)O[C@H]1C(=O)N(c1cc(Cl)cc(Cl)c1)[C@H]1CCCC[C@@H]1O [Example 203]
IC50 (human Gal-3 (hGal-3)): 24 nM | IC50 (human Gal-1 (hGal-1) [2]): 678 nM

CO[C@@H]1[C@@H](n2cc(-c3cc(F)c(NCCCO)c(F)c3)nn2)[C@@H](O)[C@@H](CO)O[C@H]1C(=O)N(c1cc(Cl)cc(Cl)c1)[C@H]1CCCC[C@@H]1O [Example 204, (2R,3R,4S,5R,6R)—N-(3,5-dichlorophenyl)-4-(4-(3,5-difluoro-4-((3-hydroxypropyl)amino)phenyl)-1H-1,2,3-triazol-1-yl)-5-hydroxy-N-((1S,2S)-2-hydroxycyclohexyl)-6-(hydroxymethyl)-3-methoxytetrahydro-2H-pyran-2-carboxamide]
IC50 (human Gal-3 (hGal-3)): 21 nM | IC50 (human Gal-1 (hGal-1) [2]): 273 nM

COc1cc(C#N)cc(N(C(=O)[C@@H]2O[C@H](CO)[C@H](O)[C@H](n3cc(-c4ccc(C#N)c(F)c4)nn3)[C@H]2OC)[C@H]2CCCC[C@@H]2O)c1 [Example 205, (2R,3R,4S,5R,6R)-4-(4-(4-cyano-3-fluorophenyl)-1H-1,2,3-triazol-1-yl)-N-(3-cyano-5-methoxyphenyl)-5-hydroxy-N-((1S,2S)-2-hydroxycyclohexyl)-6-(hydroxymethyl)-3-methoxytetrahydro-2H-pyran-2-carboxamide]
IC50 (human Gal-3 (hGal-3)): 87 nM | IC50 (human Gal-1 (hGal-1) [2]): 1820 nM

CO[C@@H]1[C@@H](n2cc(-c3ccc(C#N)c(F)c3)nn2)[C@@H](O)[C@@H](CO)O[C@H]1C(=O)N(c1cc(C)cc(C#N)c1)[C@H]1CCCC[C@@H]1O [Example 206, (2R,3R,4S,5R,6R)-4-(4-(4-cyano-3-fluorophenyl)-1H-1,2,3-triazol-1-yl)-N-(3-cyano-5-methylphenyl)-5-hydroxy-N-((1S,2S)-2-hydroxycyclohexyl)-6-(hydroxymethyl)-3-methoxytetrahydro-2H-pyran-2-carboxamide]
IC50 (human Gal-3 (hGal-3)): 126 nM | IC50 (human Gal-1 (hGal-1) [2]): 1340 nM

CO[C@@H]1[C@@H](n2cc(-c3cc(F)c(F)c(F)c3)nn2)[C@@H](O)[C@@H](CO)O[C@H]1C(=O)N(c1cccc(Cl)c1)[C@H]1CCCCC[C@@H]1O [Example 207, (2R,3R,4S,5R,6R)-N-(3-chlorophenyl)-5-hydroxy-N-((1S,2S)-2-hydroxycycloheptyl)-6-(hydroxymethyl)-3-methoxy-4-(4-(3,4,5-trifluorophenyl)-1H-1,2,3-triazol-1-yl)tetrahydro-2H-pyran-2-carboxamide]
IC50 (human Gal-3 (hGal-3)): 49 nM | IC50 (human Gal-1 (hGal-1) [2]): 1790 nM

CO[C@@H]1[C@@H](n2cc(-c3cc(F)c(F)c(F)c3)nn2)[C@@H](O)[C@@H](CO)O[C@H]1C(=O)N(c1cc(Cl)cc(Cl)c1)[C@H]1CCCCC[C@@H]1O [Example 208, (2R,3R,4S,5R,6R)-N-(3,5-dichlorophenyl)-5-hydroxy-N-((1S,2S)-2-hydroxycycloheptyl)-6-(hydroxymethyl)-3-methoxy-4-(4-(3,4,5-trifluorophenyl)-1H-1,2,3-triazol-1-yl)tetrahydro-2H-pyran-2-carboxamide]
IC50 (human Gal-3 (hGal-3)): 62 nM | IC50 (human Gal-1 (hGal-1) [2]): 586 nM

(2R,3R,5R,6R)—N-(3,5-dichlorophenyl)-5-hydroxy-N-(1S,2S)-2-hydroxycyclohexyl-3-(2-hydroxyethoxy)-6-(hydroxymethyl)-4-(4-(3,4,5-trifluorophenyl)-1H-1,2,3-triazol-1-yl)tetrahydro-2H-pyran-2-carboxamide [Example 196]
IC50 (human Gal-3 (hGal-3)): 21 nM | IC50 (human Gal-1 (hGal-1) [1]): 161 nM
